# Test results reported in BindingDB's records for patent US12435061 (Kamari Pharma, 2025).
# Molecular target: T1, Transient receptor potential cation channel subfamily V member 3 (Homo sapiens, UniProt Q8NET8)
# T1 sequence (Q8NET8 whole entry): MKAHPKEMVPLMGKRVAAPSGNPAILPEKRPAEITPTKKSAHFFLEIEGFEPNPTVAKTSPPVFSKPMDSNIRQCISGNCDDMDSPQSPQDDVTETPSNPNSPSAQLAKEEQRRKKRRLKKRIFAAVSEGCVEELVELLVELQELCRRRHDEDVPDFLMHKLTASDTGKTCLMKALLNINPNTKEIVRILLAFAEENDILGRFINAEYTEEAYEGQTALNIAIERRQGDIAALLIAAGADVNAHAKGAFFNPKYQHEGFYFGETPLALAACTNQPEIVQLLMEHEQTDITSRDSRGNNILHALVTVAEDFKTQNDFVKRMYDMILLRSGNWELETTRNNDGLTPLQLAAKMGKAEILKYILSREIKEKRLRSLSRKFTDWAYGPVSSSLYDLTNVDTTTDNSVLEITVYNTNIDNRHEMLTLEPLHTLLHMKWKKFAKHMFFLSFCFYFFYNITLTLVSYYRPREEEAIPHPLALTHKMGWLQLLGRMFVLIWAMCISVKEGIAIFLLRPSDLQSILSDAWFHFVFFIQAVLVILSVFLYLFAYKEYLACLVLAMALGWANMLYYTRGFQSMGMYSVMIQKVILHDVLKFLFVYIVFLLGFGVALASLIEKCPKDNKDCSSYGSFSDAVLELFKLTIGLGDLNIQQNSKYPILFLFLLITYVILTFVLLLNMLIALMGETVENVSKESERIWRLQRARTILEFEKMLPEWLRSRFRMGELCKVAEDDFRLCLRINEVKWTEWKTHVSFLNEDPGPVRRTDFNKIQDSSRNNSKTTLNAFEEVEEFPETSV
# Experiment: Patch Clamp Experiments
# Protocol: TRPV3 cells were induced 20-48 hours, removed from growth plates, and replated at low density (to attain good single-cell physical separation) on glass coverslips for measurement. In some cases, cells were grown in low density overnight on glass coverslips. Patch clamp recordings were made in the whole-cell mode with a holding potential of −40 mV. Every 5 seconds, a voltage ramp was applied from −120 to +100 mV, 400 ms in duration. Currents elicited were quantified at −80 mV and +80 mV. […] External solution was Ringer's solution described above.
row,SMILES,IC50 [µM]
1,"CCc1ccccc1Oc1ccc(N2CC[C@H](Oc3ccc(C(F)(F)F)cn3)C2)c(CO)n1 [US12435061, Compound 1-212]",> 3.2
2,"O=[N+](O)c1cc(-c2ccccc2)ccc1N1CC[C@H](Oc2ccc3cc(Cl)ccc3n2)C1 [US12435061, Compound 1-70]",> 3.2
